Patent US8883170B2 (priority 2008, dated 2014)
Like-named read-outs stand apart in the source and are kept apart here.

Legend:
[1] = system: BALB/c mice; settings: for overall toxicity conclusion: acute toxicity study in mice; for 7-Day Survival Males: male mice; for observations in treated animals: mice
[2] = system: recombinant hemagglutinin antigen (rHA) of influenza A; assay type: in vivo; settings: compound 100 μg + rHA 5 μg; for Anti-rHA Titer IgG1 / Anti-rHA Titer IgG2a / Anti-rHA Titer IgG2b: s.c. Days 1 and 22, serum Day 43; for Anti-rHA Titer Total IgG: s.c. Days 1 and 22, serum Day 43, BALB/c mice
[3] = system: spleen cells; assay: Immunogenicity study with rHA: lymphoproliferation of restimulated spleen cells (3H-TdR incorporation); assay type: in vivo, BALB/c mice; settings: mice immunized with compound 100 μg + rHA 5 μg; for Lymphoproliferation Con A: restimulated with concanavalin A 4 days; for Lymphoproliferation Medium: restimulated with medium (background) 4 days; for Lymphoproliferation rHA: restimulated with rHA 4 days
[4] = system: humans; settings: in humans; cited from earlier work
[5] = single s.c. dose 250 μg, female mice
[6] = single s.c. dose 500 μg, female mice
[7] = single s.c. dose 1 mg, female mice
[8] = single s.c. dose 2 mg, female mice
[9] = single s.c. dose 4 mg in DMSO, female mice

CCCCCCCCCCCCNC(=O)C12CCC(C)(C)CC1C1=CCC3C4(C)CCC(O)C(C)(C=O)C4CCC3(C)C1(C)CC2 (stereo not shown) [Dodecyl genin, dodecylamide derivative of gypsogenin]
overall toxicity conclusion [1]: general lack of toxicity
7-Day Survival Females [1, 5]: 100%
7-Day Survival Males ([1]; single s.c. dose 250 μg): 100%
7-Day Survival Females [1, 6]: 100%
7-Day Survival Males ([1]; single s.c. dose 500 μg): 100%
7-Day Survival Females [1, 7]: 100%
7-Day Survival Males ([1]; single s.c. dose 1 mg): 100%
7-Day Survival Females [1, 8]: 100%
7-Day Survival Males ([1]; single s.c. dose 2 mg): 100%
7-Day Survival Females [1, 9]: 100%
7-Day Survival Males ([1]; single s.c. dose 4 mg in DMSO): 100%
observations in treated animals ([1]; single s.c. injection): lethargy, hair loss, and skin irritation at the injection site
Anti-rHA Titer IgG1 [2]: 20,984
Anti-rHA Titer IgG2a [2]: 6600
Anti-rHA Titer IgG2b [2]: 1466
Anti-rHA Titer Total IgG [2]: 3418
Lymphoproliferation Con A [3]: 278,393
Lymphoproliferation Medium [3]: 772
Lymphoproliferation rHA [3]: 30,402

CC1(C)CC[C@]2(C(=O)O)CC[C@]3(C)C(=CC[C@@H]4[C@@]5(C)CC[C@H](O)[C@@](C)(C=O)[C@@H]5CC[C@]43C)[C@@H]2C1 [Gypsogenin, gypsogenin, reference compound]
stability on storage (TLC, purity checked periodically) (kept in cold (below −4° C.), 1 year): no change was observed
stability on storage (TLC) (room temperature storage): decomposition was seen
overall toxicity conclusion [1]: general lack of toxicity
7-Day Survival Females [1, 5]: 100%
7-Day Survival Males ([1]; single s.c. dose 250 μg): 100%
7-Day Survival Females [1, 6]: 100%
7-Day Survival Males ([1]; single s.c. dose 500 μg): 100%
7-Day Survival Females [1, 7]: 100%
7-Day Survival Males ([1]; single s.c. dose 1 mg): 100%
7-Day Survival Females [1, 8]: 100%
7-Day Survival Males ([1]; single s.c. dose 2 mg): 100%
7-Day Survival Females [1, 9]: 100%
7-Day Survival Males ([1]; single s.c. dose 4 mg in DMSO): 100%
observations in treated animals ([1]; single s.c. injection): lethargy, hair loss, and skin irritation at the injection site
Anti-rHA Titer IgG1 [2]: 3220
Anti-rHA Titer IgG2a [2]: 348
Anti-rHA Titer IgG2b [2]: 1118
Anti-rHA Titer Total IgG [2]: 1136
Lymphoproliferation Con A [3]: 321,750
Lymphoproliferation Medium [3]: 356
Lymphoproliferation rHA [3]: 8507

CCCCCCCCCCCCNC(=O)[C@]12CCC(C)(C)C[C@H]1C1=CCC3[C@@]4(C)CC[C@H](OC5OC(CO)C(O)C(O)C5O)[C@@](C)(C=O)C4CC[C@@]3(C)[C@]1(C)CC2 (stereo partly shown) [Saponin 1]
overall toxicity conclusion [1]: general lack of toxicity
7-Day Survival Females [1, 5]: 100%
7-Day Survival Males ([1]; single s.c. dose 250 μg): 100%
7-Day Survival Females [1, 6]: 100%
7-Day Survival Males ([1]; single s.c. dose 500 μg): 100%
7-Day Survival Females [1, 7]: 100%
7-Day Survival Males ([1]; single s.c. dose 1 mg): 100%
7-Day Survival Females [1, 8]: 80%
7-Day Survival Males ([1]; single s.c. dose 2 mg): 100%
7-Day Survival Females [1, 9]: 80%
7-Day Survival Males ([1]; single s.c. dose 4 mg in DMSO): 100%
maximum tolerated dose (MTD) for females ([1]; single s.c. injection, female mice): 1 mg
observations in treated animals ([1]; single s.c. injection): lethargy, hair loss, and skin irritation at the injection site
Anti-rHA Titer IgG1 [2]: 29,100
Anti-rHA Titer IgG2a [2]: 446
Anti-rHA Titer IgG2b [2]: 2008
Anti-rHA Titer Total IgG [2]: 5130
Lymphoproliferation Con A [3]: 232,769
Lymphoproliferation Medium [3]: 268
Lymphoproliferation rHA [3]: 3696

QS-21
dose associated with significant local reactions [4]: ≥ 200 µg
